Assay results from US7105543B2, “4-, 5-, 6- and 7-indole derivatives useful for the treatment of CNS disorders” (H. Lundbeck A/S, priority 2000, dated 2006).
Like-named read-outs stand apart in the source and are kept apart here.

Key:
dopamine D2 receptor = biological target: T1, dopamine D2 receptor (Rattus norvegicus, UniProt P61169); assay: Inhibition of the binding of [3H]Spiperone to D2 receptors
T1 construct: from tissue
Description: Inhibition of the Binding of [^3H]Spiperone to D2 Receptors
The compounds were tested with respect to affinity for the dopamine D2 receptor by determining their ability to inhibit the binding of [^3H]Spiperone to D2 receptors by the method of Hyttel et al. J. Neurochem. 1985, 44, 1615.

[1] = biological target: T2, human cloned dopamine D4.2 receptors expressed in CHO-cells (Homo sapiens, UniProt P21917, DEL265-296); assay: Inhibition of binding of [3H]YM-09151-2 to D4.2 receptors
T2 construct: expressed in transfected cells; host or cells: CHO cells
T2 sequence (P21917 with tags, fused parts or gaps DEL265-296): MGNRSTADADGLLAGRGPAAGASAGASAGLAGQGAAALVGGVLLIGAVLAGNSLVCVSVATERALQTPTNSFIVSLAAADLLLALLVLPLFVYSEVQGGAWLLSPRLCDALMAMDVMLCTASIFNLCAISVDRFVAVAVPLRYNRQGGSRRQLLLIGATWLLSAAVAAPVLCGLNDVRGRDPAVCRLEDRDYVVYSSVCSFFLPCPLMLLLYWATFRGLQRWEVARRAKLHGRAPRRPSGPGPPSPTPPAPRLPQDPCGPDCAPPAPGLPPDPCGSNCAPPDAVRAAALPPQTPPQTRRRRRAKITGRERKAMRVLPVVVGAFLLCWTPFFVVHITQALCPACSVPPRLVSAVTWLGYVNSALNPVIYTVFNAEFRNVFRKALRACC
Description: Inhibition of Binding of [^3H]YM-09151-2 to D4.2 Receptors
By this method, the inhibition by drugs of the binding of [^3H]YM-09151-2 (0.06 nM) to membranes of human cloned dopamine D4.2 receptors expressed in CHO-cells is determined in vitro. The method is modified from NEN Life Science Products, Inc., technical data certificate PC2533-10/96.

D4 receptor = biological target: T3, D4 receptor (Homo sapiens, UniProt P21917); conditions: various in vitro efficacy assays, literature; cited from earlier work
T3 sequence (P21917 1-419): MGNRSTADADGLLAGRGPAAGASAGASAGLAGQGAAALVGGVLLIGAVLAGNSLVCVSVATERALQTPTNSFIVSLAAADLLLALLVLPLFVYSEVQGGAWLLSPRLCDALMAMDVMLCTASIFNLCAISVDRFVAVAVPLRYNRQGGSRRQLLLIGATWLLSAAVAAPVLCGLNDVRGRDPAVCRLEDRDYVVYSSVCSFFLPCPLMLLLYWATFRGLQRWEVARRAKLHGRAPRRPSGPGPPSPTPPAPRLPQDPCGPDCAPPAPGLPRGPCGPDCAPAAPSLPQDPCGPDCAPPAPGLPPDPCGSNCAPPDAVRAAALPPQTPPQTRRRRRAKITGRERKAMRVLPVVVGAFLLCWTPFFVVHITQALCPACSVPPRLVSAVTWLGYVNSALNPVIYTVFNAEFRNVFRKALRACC

[2] = inhibition of [3H]Spiperone binding, read-out: D2-Receptor IC50

T1 sequence (P61169 whole entry): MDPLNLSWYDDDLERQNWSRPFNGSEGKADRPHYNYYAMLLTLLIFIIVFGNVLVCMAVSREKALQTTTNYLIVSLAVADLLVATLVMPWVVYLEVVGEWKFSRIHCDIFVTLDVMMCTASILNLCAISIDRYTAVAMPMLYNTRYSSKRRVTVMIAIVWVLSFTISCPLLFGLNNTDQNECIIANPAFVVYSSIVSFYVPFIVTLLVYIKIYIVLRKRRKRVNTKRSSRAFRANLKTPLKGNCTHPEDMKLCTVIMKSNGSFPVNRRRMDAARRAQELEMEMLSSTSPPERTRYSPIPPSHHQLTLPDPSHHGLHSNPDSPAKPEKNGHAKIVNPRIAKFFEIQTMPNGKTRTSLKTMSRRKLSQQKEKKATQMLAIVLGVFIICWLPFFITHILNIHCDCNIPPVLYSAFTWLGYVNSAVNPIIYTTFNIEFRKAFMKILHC

Row | SMILES | IC50 (dopamine D2 receptor) [nM] | IC50 [1] [nM] | IC50 (dopamine D2 receptor; [2]) [nM] | D4-receptor, second figure after the slash in the IC50 cell ([1]; printed as '<50/89', meaning of the second figure not explained) [nM] | Functional activity at the D4 receptor (in words) (D4 receptor)
1 | Clc1ccc(N2CCN(Cc3ccc4[nH]ccc4c3)CC2)cc1 [Compound 1a, 5-[[4-(4-chlorophenyl)piperazin-1-yl]methyl]-1H-indole] | 1700 | 7.5 | – | – | –
2 | c1cc2cc(CN3CCN(c4ccc5[nH]ccc5c4)CC3)ccc2[nH]1 [Compound 1b, 5-[[4-(5-indolyl)piperazin-1-yl]methyl]-1H-indole] | – | < 50 | 1000 | 89 | –
3 | COc1ccc(N2CCN(Cc3ccc4[nH]ccc4c3)CC2)cc1 [Compound 1c, 5-[[4-(4-methoxyphenyl)piperazin-1-yl]methyl]-1H-indole] | > 10000 | 25 | – | – | –
4 | c1ccc(N2CCN(Cc3ccc4[nH]ccc4c3)CC2)cc1 [Compound 1d, 5-[[4-phenylpiperazin-1-yl]methyl]-1H-indole] | – | 31 | 940 | – | –
5 | Clc1ccc(C2=CCN(Cc3ccc4[nH]ccc4c3)CC2)cc1 [Compound 1e, 5-[4-(4-Chlorophenyl)-3,6-dihydro-2H-pyridin-1-ylmethyl]-1H-indole] | – | 1.4 | 190 | – | –
6 | Clc1ccc(N2CCN(Cc3ccc4cc[nH]c4c3)CC2)cc1 [Compound 1f, 6-[[4-(4-chlorophenyl)piperazin-1-yl]methyl]-1H-indole] | > 10000 | – | – | – | –
7 | COc1ccc(N2CCN(Cc3ccc4cc[nH]c4c3)CC2)cc1 [Compound 1g, 6-[[4-(4-methoxyphenyl)piperazin-1-yl]methyl]-1H-indole] | > 10000 | 9.1 | – | – | –
8 | CC(C)Oc1cccnc1N(C)C1CCN(Cc2ccccc2)CC1 [Compound U-101958] | – | – | – | – | partial D4 receptor agonists
